Results taken from patent publication US20230219978A1, “COMPOUND HAVING MACROCYCLIC STRUCTURE AND USE THEREOF” (SCINNOHUB PHARMACEUTICAL CO., LTD, priority 2020, published 2023).

Assays:
Assay type in all cases: biochemical
RET wt = target: T1, RET wt (Homo sapiens, UniProt P07949); experiment: In vitro kinase activity assay (mobility shift assay), RET wild type; details: ATP 16 μM, reaction time 60 min
T1 construct: purchased Carna 08-159
Procedure, shortened: (§1)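 Each enzyme was first exposed to test compound (top 1000 nM, 3-fold dilutions, 10 concentrations, one well each) for 10 min at room temperature. Adding ATP and peptide substrate started the reaction, which proceeded 30-240 min before stopping. Conversion was then measured and curves fitted for IC50.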

RET G810R = target: T2, RET G810R (Homo sapiens, UniProt P07949, G810R); experiment: In vitro kinase activity assay (mobility shift assay), RET G810R; details: ATP 201 μM, reaction time 4 h
T2 construct: purchased Proqinase 1724-0000-1
Procedure, shortened: as §1

RET V804M = target: T3, RET V804M (Homo sapiens, UniProt P07949, V804M); experiment: In vitro kinase activity assay (mobility shift assay), RET V804M; details: ATP 5.4 μM, reaction time 60 min
T3 construct: purchased signalchem R02-12GG
Protocol: (§2) The IC50 (half inhibitory concentration) values of the compounds were used as an indicator to evaluate the inhibitory effect of the compound on RET wild-type, RET mutant, TRKa, SRC, BTK and/or mutated BTK kinase.
(§3) Using the method of Mobility shift assay, the compounds were tested for inhibitory activity against the following kinases: RET wild type, RET mutant, TRKa, SRC, BTK and/or mutated BTK. The initial concentration of the test compound was 1000 nM, 3-fold dilution, 10 concentrations, detected in a well for each concentration.
(§4) 20 mM hydroxyethylpiperazineethanesulfonic acid (Hepes) (pH 7.5) buffer, 10 mM MgCl2, 1 mM ethylene glycol bis(aminoethyl ether)tetraacetic acid (EGTA), 0.02% polyoxyethylene lauryl ether (Brij35), 0.02 mg/ml […] (BSA), 0.1 mM Na3VO4, 2 mM dithiothreitol (DTT), 1% DMSO.
(§5) The test compounds were dissolved in 100% dimethyl sulfoxide (DMSO) system, and prepared as 10 mM for use, and stored in a nitrogen cabinet away from light.
(§6) • (1) Preparing 1× kinase reaction buffer. • (2) Preparation of compound concentration gradient: the initial concentration of the compounds was 1000 nM, which was diluted as 100-fold final concentration of solution in 100% dimethyl sulfoxide (DMSO) in a 384-well plate. The compound was accurately 3-fold diluted with the kinase buffer solution, 10 concentrations in total, and the final concentration was 0.0508 nM. The 100-fold final concentration of solution in 100% dimethyl sulfoxide (DMSO) was obtained by dilution in 384 source plate. The liquid separator Echo 550 was used to transfer 250 nl of 100-fold final concentration of compound to the target 384 well plate. 250 nl of DMSO was added to the positive and negative control wells. • (3) 2.5-fold final concentration of kinase solution was prepared by the 1× kinase buffer. • (4) 10 4, of 2.5-fold final concentration of kinase solution was added to the compound well and the positive control well, respectively; 10 4, of 1× kinase buffer was added to the negative control well. • (5) After centrifuging at 1000 rpm for 30 second, the reaction plate was shaken and mixed, followed by incubation at room temperature for 10 min. • (6) a mixed solution of 25/15-fold final concentration of adenosine triphosphate (ATP) and kinase substrate was prepared by 1× kinase buffer. • (7) The mixed solution (15 μL) of 25/15-fold final concentration of adenosine triphosphate (ATP) and substrate was added to initiate the reaction. • (8) 384-well plate was centrifuged at 1000 rpm for 30 second, shaken and mixed well, and then incubated at room temperature for 30-240 min. • (9) After stopping the kinase reaction, the plate was centrifugated at 1000 rpm for 30 second, shaken and mixed well. • (10)The conversion rate was read with Caliper EZ Reader.
(§7) wherein Conversion%_sample is the conversion rate reading of the sample; Conversion%_min: the mean value of negative control wells, representing the conversion rate reading of wells without enzymes; Conversion%_max: the mean value of positive control wells, representing the conversion rate reading of wells without compound inhibition.
(§8) The log value of concentration was taken as the X axis, and the percentage inhibition rate was taken as the Y axis. Graphpad 6.0 analysis software was used to fit the dose-response curve, so as to obtain the IC50 value of each compound on the enzyme activity

BTK = target: T4, BTK (Homo sapiens, UniProt Q06187); experiment: In vitro kinase activity assay (mobility shift assay), BTK; details: ATP 71 μM, reaction time 30 min
T4 construct: purchased Carna 08-180
Protocol: as §2, §3, §4, §5, §6, §7, §8

BTK C481S = target: T5, BTK C481S (Homo sapiens, UniProt Q06187, C481S); experiment: In vitro kinase activity assay (mobility shift assay), BTK C481S; details: ATP 90 μM, reaction time 30 min
T5 construct: purchased Carna 08-547
Protocol: as §2, §3, §4, §5, §6, §7, §8

TRKa = target: T6, TRKa (Homo sapiens, UniProt P04629); experiment: In vitro kinase activity assay (mobility shift assay), TRKa; details: ATP 47.8 μM, reaction time 30 min
T6 construct: purchased Carna 08-186
Protocol: as §2, §3, §4, §5, §6, §7, §8

T1 sequence (P07949 29-1114): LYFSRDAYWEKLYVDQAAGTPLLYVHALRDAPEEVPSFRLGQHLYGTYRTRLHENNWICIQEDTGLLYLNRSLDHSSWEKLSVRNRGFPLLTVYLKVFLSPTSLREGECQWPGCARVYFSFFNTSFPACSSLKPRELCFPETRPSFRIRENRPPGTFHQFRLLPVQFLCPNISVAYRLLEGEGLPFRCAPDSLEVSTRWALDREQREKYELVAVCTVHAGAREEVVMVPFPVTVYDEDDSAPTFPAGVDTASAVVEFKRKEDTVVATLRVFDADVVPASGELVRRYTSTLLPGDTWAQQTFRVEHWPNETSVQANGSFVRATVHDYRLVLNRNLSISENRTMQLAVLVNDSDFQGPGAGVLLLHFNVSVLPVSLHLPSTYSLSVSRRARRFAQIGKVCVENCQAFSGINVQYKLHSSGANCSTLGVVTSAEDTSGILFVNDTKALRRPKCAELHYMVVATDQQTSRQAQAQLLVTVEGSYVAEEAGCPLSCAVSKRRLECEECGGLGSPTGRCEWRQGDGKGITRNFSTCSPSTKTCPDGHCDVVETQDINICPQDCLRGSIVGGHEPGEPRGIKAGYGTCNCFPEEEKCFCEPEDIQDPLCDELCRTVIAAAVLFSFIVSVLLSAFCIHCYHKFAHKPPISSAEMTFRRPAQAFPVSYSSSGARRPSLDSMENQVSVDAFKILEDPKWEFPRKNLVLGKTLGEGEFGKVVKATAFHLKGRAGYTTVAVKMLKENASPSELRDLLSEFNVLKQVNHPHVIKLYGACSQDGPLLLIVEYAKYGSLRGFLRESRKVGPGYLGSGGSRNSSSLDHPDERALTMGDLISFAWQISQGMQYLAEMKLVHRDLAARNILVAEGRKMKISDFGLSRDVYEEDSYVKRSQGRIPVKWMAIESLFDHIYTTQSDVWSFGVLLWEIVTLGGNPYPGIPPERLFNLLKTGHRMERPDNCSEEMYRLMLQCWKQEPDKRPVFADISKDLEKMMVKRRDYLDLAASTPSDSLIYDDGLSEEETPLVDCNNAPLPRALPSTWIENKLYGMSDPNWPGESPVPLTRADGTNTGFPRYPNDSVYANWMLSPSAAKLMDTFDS
T2 sequence (P07949 29-1114 G810R): as the sequence (P07949 29-1114) above, with G782R counted along it
T3 sequence (P07949 29-1114 V804M): as the sequence (P07949 29-1114) above, with V776M counted along it
T5 sequence (Q06187 whole entry C481S): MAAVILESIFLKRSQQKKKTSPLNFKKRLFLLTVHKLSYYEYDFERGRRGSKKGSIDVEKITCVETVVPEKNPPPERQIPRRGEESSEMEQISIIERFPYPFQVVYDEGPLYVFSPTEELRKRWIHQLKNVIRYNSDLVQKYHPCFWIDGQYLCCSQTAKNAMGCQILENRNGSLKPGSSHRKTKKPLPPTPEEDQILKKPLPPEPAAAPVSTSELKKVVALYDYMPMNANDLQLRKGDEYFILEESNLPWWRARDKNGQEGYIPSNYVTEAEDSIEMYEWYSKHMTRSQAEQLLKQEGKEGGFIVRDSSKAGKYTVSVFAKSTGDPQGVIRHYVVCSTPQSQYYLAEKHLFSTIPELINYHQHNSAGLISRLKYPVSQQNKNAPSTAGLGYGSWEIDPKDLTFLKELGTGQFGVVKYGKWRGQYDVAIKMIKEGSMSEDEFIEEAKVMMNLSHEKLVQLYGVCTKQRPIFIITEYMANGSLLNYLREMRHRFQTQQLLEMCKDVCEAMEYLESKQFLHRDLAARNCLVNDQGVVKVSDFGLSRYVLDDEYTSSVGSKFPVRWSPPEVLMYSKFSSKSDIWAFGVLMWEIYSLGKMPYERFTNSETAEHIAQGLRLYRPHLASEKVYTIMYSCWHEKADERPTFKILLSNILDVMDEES
T4 sequence (Q06187 whole entry): as the sequence (Q06187 whole entry C481S) above, with S481C counted along it
T6 sequence (P04629 33-796): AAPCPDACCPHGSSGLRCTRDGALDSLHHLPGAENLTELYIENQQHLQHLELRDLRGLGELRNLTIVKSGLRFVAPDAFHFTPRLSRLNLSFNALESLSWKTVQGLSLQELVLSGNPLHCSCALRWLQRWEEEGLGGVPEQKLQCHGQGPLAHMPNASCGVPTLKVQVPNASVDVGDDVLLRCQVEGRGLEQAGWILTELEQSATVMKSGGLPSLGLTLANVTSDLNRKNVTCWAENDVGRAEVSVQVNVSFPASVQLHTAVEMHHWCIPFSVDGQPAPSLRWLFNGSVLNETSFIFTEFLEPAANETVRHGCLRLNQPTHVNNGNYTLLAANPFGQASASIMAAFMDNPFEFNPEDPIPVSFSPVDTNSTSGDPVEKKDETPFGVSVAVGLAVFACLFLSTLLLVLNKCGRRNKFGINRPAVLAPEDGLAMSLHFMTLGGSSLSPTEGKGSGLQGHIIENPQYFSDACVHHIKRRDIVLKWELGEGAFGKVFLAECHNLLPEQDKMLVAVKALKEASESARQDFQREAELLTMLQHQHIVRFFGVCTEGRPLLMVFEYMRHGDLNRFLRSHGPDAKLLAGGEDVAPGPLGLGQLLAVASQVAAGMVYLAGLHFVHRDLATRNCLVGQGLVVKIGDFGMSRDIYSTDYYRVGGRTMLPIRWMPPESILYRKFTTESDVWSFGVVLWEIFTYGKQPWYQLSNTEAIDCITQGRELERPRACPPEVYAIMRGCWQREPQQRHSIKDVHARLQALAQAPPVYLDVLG

Structure (SMILES)	IC50 (RET wt)	IC50 (RET G810R)	IC50 (RET V804M)	IC50 (BTK)	IC50 (BTK C481S)	IC50 (TRKa)
Cc1nn2c(N)c(-c3ccccc3)c3nc2c1C(=O)NC[C@H](C)Oc1ncc(F)cc1CN3 [Example 74, (S, 1^3E, 1^4E)-1^7-amino-4^5-fluoro-1^2,6-dimethyl-1^6-phenyl-5-oxa-2,8-diaza-1(5,3)-pyrazolo[1,5-a]pyrimidinyl-4(3,2)-pyridinacyclononaphan-9-one]	323 nM	> 1000 nM	> 1000 nM	> 1000 nM	> 1000 nM	–
COC(=O)Nc1ccc(-c2c3nc4c(cnn4c2N)C(=O)NC[C@H](C)Oc2ncc(F)cc2CN3)cc1 [Compound 49, methyl (4-((S, 1^3E, 1^4E)-1^7-amino-4^5-fluoro-6-methyl-9-oxo-5-oxa-2,8-diaza-1(5,3)-pyrazolino [1,5-a]pyrimidin-4(3,2)-pyridinacyclononaphan-1^6-yl)-phenyl)carbamate]	< 0.51 nM	9.3 nM	1.3 nM	9.2 nM	15 nM	–
C[C@H]1CNC(=O)c2c(C#N)nn3c(N)c(-c4ccccc4)c(nc23)NCc2cc(F)cnc2O1 [Example 77, (S, 1^3E, 1^4E)-1^2-cyano-1^6-phenyl-1^7-amino-4^5-fluoro-6-methyl-5-oxa-2,8-diaza-1(5,3)-pyrazolo[1,5-a]pyrimidinyl-4(3,2)-pyridinacyclononaphan-9-one]	> 1000 nM	> 1000 nM	> 1000 nM	> 1000 nM	> 1000 nM	–
C[C@H]1CNC(=O)c2cnn3cc(-c4cccc(Cl)c4)c(nc23)NCc2cc(F)cnc2O1 [Compound 3, (S, 1^3E, 1^4E)-1^6-(3-chlorophenyl)-4^5-fluoro-6-methyl-5-oxa-2,8-diaza-1(5,3)-pyrazolo[1,5-a]pyrimidina-4(3,2)-pyridinacyclononaphan-9-one]	22 nM	–	–	–	54.8 nM	> 10000 nM
Nc1c(-c2ccccc2)c2nc3c(cnn13)C(=O)NC1CCCC1Oc1ncc(F)cc1CN2 (stereo not drawn) [Example 78, (6^3E, 6^4E)-6^7-amino-1^5-fluoro-6^6-phenyl-2-oxo-4,7-diaza-6(3,5)-pyrazolo[1,5-a]pyrimidin-1(2,3)-pyridin-3(1, 2)-cyclopentanacyclooctaphan-5-one]	2.5 nM	337 nM	24 nM	1.7 nM	1.7 nM	–
C[C@H]1CNC(=O)c2c(Br)nn3c(N)c(-c4ccccc4)c(nc23)NCc2cc(F)cnc2O1 [Example 76, (S, 1^3E, 1^4E)-1^2-bromo-1^6-phenyl-1^7-amino-4^5-fluoro-6-methyl-5-oxa-2,8-diaza-1(5,3)-pyrazolo[1,5-a]pyrimidinyl-4(3,2)-pyridinacyclononaphan-9-one]	922 nM	> 1000 nM	> 1000 nM	> 1000 nM	> 1000 nM	–
C[C@H]1CN(C)C(=O)c2cnn3c(N)c(-c4ccccc4)c(nc23)NCc2cc(F)cnc2O1 [Example 75, (S, 1^3E, 1^4E)-1^7-amino-4^5-fluoro-6,8-dimethyl-1^6-phenyl-5-oxo-2,8-diaza-1(5,3)-pyrazolo[1,5-a]pyrimidin-4(3,2)-pyridinacyclononaphan-9-one]	20 nM	> 1000 nM	311 nM	22 nM	52 nM	–
C[C@H]1CNC(=O)c2cnn3cc(-c4ccc(Cl)cc4)c(nc23)NCc2cc(F)cnc2O1 [Compound 9, (S, 1^3E, 1^4E)-1^6-(4-chlorophenyl)-4^5-fluoro-6-methyl-5-oxa-2,8-diaza-1(5,3)-pyrazolo[1,5-a]pyrimidina-4(3,2)-pyridinacyclononaphan-9-one]	8.2 nM	–	–	25.9 nM	13 nM	> 10000 nM
Nc1c(-c2ccccc2)c2nc3c(cnn13)C(=O)N1CCCC1COc1ncc(F)cc1CN2 (stereo not drawn) [Example 79]	104 nM	> 1000 nM	> 1000 nM	45 nM	97 nM	–
